From PMC4214152 (Chemical science (Royal Society of Chemistry : 2010), 2011)

Columns and labels:
[1] = system: NCI-H1975 lung carcinoma cells; assay: Cell viability by MTT assay; assay type: cell-based; settings: NCI-H1975, 100 μM, 24 h
αvβ3 integrin receptor = αvβ3 integrin receptor (Homo sapiens, UniProt P05106+P06756); assay type: binding
HFL-1 lung fibroblasts = settings: HFL-1, 100 μM, 24 h incubation
[2] = molecular target: purified human αIIbβ3 integrin receptor (Homo sapiens, UniProt P05106+P08514); assay type: binding
[3] = system: AsPC-1 pancreatic carcinoma; assay: Cell viability by MTT assay; assay type: cell-based; settings: AsPC-1, 100 μM, 24 h
physchem = assay type: physicochemical
αIIbβ3 integrin = αIIbβ3 integrin (Homo sapiens, UniProt P05106+P08514); assay: Hyperpolarized 129Xe NMR binding assay
[4] = 50 μM with 16 μM αIIbβ3 integrin, Tris buffer, 30% glycerol, 0.1% Triton X-100

Row | SMILES | maximum toxicity [1] [%] | lower affinity compared to c[RGDyK] peptide alone (αvβ3 integrin receptor) | maximum toxicity (HFL-1 lung fibroblasts) [%] | weaker binding compared to c[RGDyK] peptide [2] | maximum toxicity [3] [%] | solubility (physchem) [µM] | 129Xe NMR chemical shift of "bound" biosensor (αIIbβ3 integrin; [4]) [ppm] | 129Xe NMR chemical shift of "free" biosensor (αIIbβ3 integrin; [4]) [ppm] | 129Xe NMR chemical shift of biosensor alone (αIIbβ3 integrin; 100 μM, Tris buffer (1 mM, pH 7.2)) [ppm]
1 | C#CCOc1cc2c3cc1OCCOc1cc4c(cc1OC)Cc1cc5c(OC)cc1Cc1cc(c(OC)cc1C4)OCCOc1cc(c(cc1OCC#C)Cc1cc(c(OCc4cn(CCCC[C@@H]6NC(=O)[C@@H](Cc7ccc(O)cc7)NC(=O)[C@H](CC(=O)O)NC(=O)CNC(=O)[C@H](CCCNC(=N)N)NC6=O)nn4)cc1C3)OCCO5)C2 [Biosensor 3] | 57 | approximately 4 fold | 40 | approximately 10 fold | 61 |  |  |  | 
2 | COc1cc2c3cc1OCCOc1cc4c(cc1OCc1cn(CCCC[C@@H]5NC(=O)[C@@H](Cc6ccc(O)cc6)NC(=O)[C@H](CC(=O)O)NC(=O)CNC(=O)[C@H](CCCNC(=N)N)NC5=O)nn1)Cc1cc5c(OCc6cn(CCC(=O)O)nn6)cc1Cc1cc(c(OCc6cn(CCC(=O)O)nn6)cc1C4)OCCOc1cc(c(cc1OC)Cc1cc(c(OC)cc1C3)OCCO5)C2 [Biosensor 5] |  |  |  |  |  | ≤ 250 | 71.2 | 67.1 | 65.8
